Assay results: patent US20230293708A1, “CONJUGATE OF SAPONIN AND SINGLE-DOMAIN ANTIBODY, PHARMACEUTICAL COMPOSITION COMPRISING SAID CONJUGATE, THERAPEUTIC USE THEREOF” (SAPREME TECHNOLOGIES B.V., priority 2020, published 2023)
Where two headings read alike, the source gives them in different places.

Assays:
Assay in all cases: Cell viability (MTS) assay, cell killing
Type in all cases: cell-based, human
A431 cells = system: A431 cells
Method: (§1) After treatment the cells were incubated for 72 hr at 37° C. before the cell viability was determined by a MTS-assay, performed according to the manufacturer's instruction (CellTiter 96® AQueous One Solution Cell Proliferation Assay, Promega). Briefly, the MTS solution was diluted 20× in DMEM without phenol red (PAN-Biotech GmbH) supplemented with 10% FBS. The cells were washed once with 200 μL/PBS well, after which 100 μL diluted MTS solution was added/well. The plate was incubated for approximately 20-30 minutes at 37° C. Subsequently, the OD at 492 nm was measured on a Thermo Scientific Multiskan FC plate reader (Thermo Scientific). For quantification the background signal of ‘medium only’ wells was subtracted from all other wells, before the cell viability percentage of treated/untreated cells was calculated, by dividing the background corrected signal of treated wells over the background corrected signal of the untreated wells (×100).
(§2) Cells were seeded in a 96 well plate at 5.000-10.000 c/w in 100 μL/well and incubated overnight at 37° C. […] The media was removed from the cell culture plate and replaced by 180 μL culture media, followed by the addition of 20 μL treatment-mix/well. […]
(§3) After treatment the cells were incubated for 72 hr at 37° C. before the cell viability was determined by a MTS-assay, performed according to the manufacturer's instruction (CellTiter 96® AQueous One Solution Cell Proliferation Assay, Promega). […] Subsequently, the optical density at 492 nm was measured on a Thermo Scientific Multiskan FC plate reader (Thermo Scientific). For quantification the background signal of ‘medium only’ wells was subtracted from all other wells, before the ratio of […].

SK-BR-3 cells = conditions: read-out: IC50 (calculated on concentration SO1861), + fixed 1.5 pM EGF-dianthin
Method: as §1, §2, §3

CaSki cells = system: CaSki cells
Method: (§4) Cells were seeded in a 96 well plate at 5.000-10.000 c/w in 100 μL/well and incubated overnight at 37° C. […] The media was removed from the cell culture plate and replaced by 180 μL culture media, followed by the addition of 20 μL treatment-mix/well. […] In the case that endosomal acidification inhibitors (chloroquine (Sigma Aldrich) or bafilomycin A1 (Enzo Life Sciences)) were used, the cell culture media in step 1 of treatment was replaced by 180 μL media containing 1 μM chloroquine or 0.2 μM bafilomycin A1. The plate was incubated for 1 hour at 37° C., before the 10× treatment-mix samples were added. The remaining incubation and treatment steps were performed according to standard procedures known in the field.
(§5) After treatment the cells were incubated for 72 hr at 37° C. before the cell viability was determined by a MTS-assay, performed according to the manufacturer's instruction (CellTiter 96® AQueous One Solution Cell Proliferation Assay, Promega). Briefly, the MTS solution was diluted 20× in DMEM without phenol red (PAN-Biotech GmbH) supplemented with 10% FBS (PAN-Biotech GmbH). The cells were washed once with 200 μL PBS per well, after which 100 μL diluted MTS solution was added per well. The plate was incubated for approximately 20-30 minutes at 37° C. Subsequently, the optical density at 492 nm was measured on a Thermo Scientific Multiskan FC plate reader (Thermo Scientific). For quantification the background signal of ‘medium only’ wells was subtracted from all other wells, before the ratio of […].

HeLa cells = conditions: + 1500 nM SO1861 (unconjugated)
Method: as §4, §5

JIMT-1 cells = conditions: + 1500 nM SO1861 (unconjugated)
Method: as §4, §5

[1] = read-out: IC50 (calculated on concentration SO1861), SO1861 or mAb-SO1861 titrated + fixed 50 pM trastuzumab-saporin

| Compound | IC50 (A431 cells; read-out: IC50 (calculated on concentration SO1861), + fixed 10 pM cetuximab-saporin) [nM] | IC50 (A431 cells; [1]) [nM] | IC50 (SK-BR-3 cells) [nM] | IC50 (CaSki cells; [1]) [nM] | IC50 (CaSki cells; + 1500 nM SO1861 (unconjugated), read-out: IC50) [nM] | IC50 (HeLa cells) [nM] | IC50 (JIMT-1 cells) [nM] |
| --- | --- | --- | --- | --- | --- | --- | --- |
| CC(=O)O[C@H]1[C@H](O[C@@H]2OC[C@@H](O)[C@H](O)[C@H]2O)[C@@H](O)[C@H](O[C@@H]2[C@H](O)[C@@H](O[C@@H]3O[C@@H](C)[C@H](O[C@@H]4OC[C@@H](O)[C@H](O[C@@H]5OC[C@@H](O)[C@H](O)[C@H]5O)[C@H]4O)[C@@H](O)[C@H]3O)[C@H](OC(=O)[C@]34CCC(C)(C)C[C@H]3C3=CC[C@@H]5[C@@]6(C)CC[C@H](O[C@H]7O[C@H](C(=O)O)[C@@H](O)[C@H](O[C@@H]8OC[C@@H](O)[C@H](O)[C@H]8O)[C@H]7O[C@@H]7O[C@H](CO)[C@H](O)[C@H](O)[C@H]7O)[C@@](C)(C=O)[C@@H]6CC[C@@]5(C)[C@]3(C)C[C@H]4O)O[C@@H]2C)O[C@@H]1C [SO1861] | 600 | ≥ 1000 | 800 | ≥ 1000 |  |  |  |
| Saporin |  |  |  |  | 0.015 | 0.03 | 0.03 |
